Test results reported in patent publication US5439904A, “2-spiro(2'-spirocycloalkyl)cyclopropyl cephalosporin sulfones as antiinflammatory and antigenerative agents” (Synphar Laboratories, Inc., priority 1993, dated 1995).

Target: T1, HLE (Homo sapiens, UniProt P08246)
T1 construct: Purified elastase from human white blood cells; from tissue; host or cells: human white blood cells (purified enzyme)
T1 sequence (P08246 30-247 limits assumed): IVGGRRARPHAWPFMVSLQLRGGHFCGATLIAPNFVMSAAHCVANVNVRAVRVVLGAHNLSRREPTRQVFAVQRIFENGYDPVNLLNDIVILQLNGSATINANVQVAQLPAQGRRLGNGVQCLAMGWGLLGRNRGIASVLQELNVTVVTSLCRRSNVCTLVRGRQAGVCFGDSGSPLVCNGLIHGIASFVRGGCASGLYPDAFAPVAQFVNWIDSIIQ
Assay: Enzyme assay for inhibition of HLE (human leukocyte elastase)
Assay type: biochemical
Conditions: purified elastase from human white blood cells, 10 nM; 10 minute preincubation; 0.35 mM MeO-succinyl-L-alanyl-L-alanyl-L-prolyl-L-valine-p-nitroanilide; pH 7.6; 10% dimethylsulfoxide; 410 nm; read-out: IC50 values against HLE
Method: ENZYME ASSAY FOR INHIBITION OF HLE
ENZYME: Purified elastase from human white blood cells.
MeO-succinyl-L-alanyl-L-alanyl-L-prolyl-L-valine-
10 mM phosphate buffer (pH 7.6)
The enzyme activity was determined by monitoring the increase in absorbance at 410 nm caused by the hydrolysis of chromogenic substrates. Inhibition of enzyme by the compounds described were determined after a 10 minute preincubation with the enzyme in the reaction mixture minus substrate. Reaction was initiated by the addition of substrate. The concentration of human leukocyte elastase used for assay was at 10 nM.

SMILES	IC50 [nM]
CO[C@H]1C(=O)N2C(C(=O)OC(C)(C)C)=C(CSc3nnc(C)s3)C3(CC34CCCC4)S(=O)(=O)C12 (stereo partly shown) [Compound 15]	10.3
CON=C(C)C1=C(C)C2(CC23CCCC3)S(=O)(=O)C2[C@@H](OC)C(=O)N12 (stereo partly shown) [Compound 19]	80.7
CO[C@H]1C(=O)N2C(C(=O)OC(C)(C)C)=C(COC(C)=O)C3(CC34CCCC4)S(=O)(=O)C12 (stereo partly drawn) [Compound 11, t-Butyl-7α-methoxy-2-spiro(2'-spirocyclopentyl)cyclopropyl-3-acetoxymethyl-3-cephem-4-carboxylate-1,1-dioxide]	9.1
CO[C@H]1C(=O)N2C(C(=O)N3CCC(C(=O)O)CC3)=C(C)C3(CC34CCCC4)S(=O)(=O)C12 (stereo partly shown) [Compound 5]	58.1
CO[C@H]1C(=O)N2C(C(=O)N3CCN(C)CC3)=C(C)C3(CC34CCCC4)S(=O)(=O)C12 (stereo partly shown) [Compound 3]	24.4
CO[C@H]1C(=O)N2C(C(C)=O)=C(C)C3(CC34CCCC4)S(=O)(=O)C12 (stereo partly shown) [Compound 18]	10.7
CO[C@H]1C(=O)N2C(C(=O)N3CCN(C)CC3)=C(C)C3(CC34CCCC4)S(=O)(=O)C12 (stereo partly shown) [drawing 6]	27.3
CO[C@H]1C(=O)N2C(C(=O)OC(C)(C)C)=C(CSc3nnnn3C)C3(CC34CCCC4)S(=O)(=O)C12 (stereo partly shown) [Compound 14]	15.3
COC1C(=O)N2C(C(=O)N(C)CC(=O)O)=C(C)C3(CC34CCCC4)S(=O)(=O)C12 (stereo not shown) [Compound 23]	75
CO[C@H]1C(=O)N2C(C(=O)N3CCC(C(=O)O)CC3)=C(CSc3nc(=O)c(O)nn3C)C3(CC34CCCC4)S(=O)(=O)C12 (stereo partly shown) [Compound 24]	34
CO[C@H]1C(=O)N2C(C(=O)N3CCC(C(N)=O)CC3)=C(C)C3(CC34CCCC4)S(=O)(=O)C12 (stereo partly shown) [Compound 20]	8.4
CO[C@H]1C(=O)N2C(C(=O)OC(C)(C)C)=C(CSc3nc(=O)c(O)nn3C)C3(CC34CCCC4)S(=O)(=O)C12 (stereo partly shown) [Compound 12]	15
CO[C@H]1C(=O)N2C(C(=O)N3CCCCC3)=C(CSc3nc(=O)c(O)nn3C)C3(CC34CCCC4)S(=O)(=O)C12 (stereo partly shown) [Compound 16]	32.4
CC1=C(C(=O)OC(c2ccccc2)c2ccccc2)N2C(=O)CC2S(=O)(=O)C12CC21CCCC1 (stereo not shown) [Compound 22, benzhydryl 7,7-dihydro-2-spiro(2'-spirocyclopentyl)-cyclopropyl-3-methyl-3-cephem-4-carboxylate-1,1-dioxide]	478
CO[C@H]1C(=O)N2C(C(=O)N3CCN(CC(=O)O)CC3)=C(C)C3(CC34CCCCC4)S(=O)(=O)C12 (stereo partly shown) [Compound 9]	27
CO[C@H]1C(=O)N2C(C(=O)N3CCN(CC(=O)OC(C)(C)C)CC3)=C(C)C3(CC34CCCCC4)S(=O)(=O)C12 (stereo partly shown) [Compound 8]	8.37
CO[C@H]1C(=O)N2C(C(=O)c3ccccc3)=C(C)C3(CC34CCCC4)S(=O)(=O)C12 (stereo partly shown) [Compound 21]	3.9
CC1=C(C(=O)N2CCC(C(=O)OC(C)(C)C)CC2)N2C(=O)CC2S(=O)(=O)C12CC21CCCC1 (stereo not shown) [Compound 17]	870
CO[C@H]1C(=O)N2C(C(=O)N3CCN(C)CC3)=C(C)C3(CC34CCCCC4)S(=O)(=O)C12 (stereo partly shown) [Compound 10]	8.4
CO[C@H]1C(=O)N2C(C(=O)OC(C)(C)C)=C(CSc3ccccn3)C3(CC34CCCC4)S(=O)(=O)C12 (stereo partly shown) [Compound 13]	9.4
CO[C@H]1C(=O)N2C(C(=O)N3CCN(CC(=O)O)CC3)=C(C)C3(CC34CCCC4)S(=O)(=O)C12 (stereo partly shown) [Compound 4]	139
CO[C@H]1C(=O)N2C(C(=O)N3CCN(C)CC3)=C(C)C3(CC34CCCCC4)S(=O)(=O)C12 (stereo partly shown) [Compound 7]	6.4
